We go through one substance from US20120251628A1, “COMPOSITIONS AND METHODS FOR TREATMENT OF CANCER” (priority 2011, published 2012).

The subject of test [1] is CT26 (mouse colon cancer). The test is described as follows: DCE-MRI of tumor vascularity (Kep) in CT26 tumor mice. In kind it is in vivo. The protocol: To determine whether the occurrence of central necrosis of tumors 24 hours after treatment was caused by the reduction of vascularity, DCE-MRI was used before the medication was administered and 24 hours after administration.
Inoculate CT26 (mouse colon cancer) 2×10^6 cell subcutaneously into mice on the upper parts of their thighs.
After checking the tumor size between 6 to 10 mm, acquire images through MRI.
Image Acquisition: Use a magnetic resonance imaging device (i.e., 3 Tesla Intera human clinical scanner; Philips medical systems) and a mouse coil with an inner diameter of 4 cm to get images. Acquire images before the drug is administered and those 24 hours after that for two days.
MR Pulse Sequence as follows: Dynamic Contrast enhanced MRI scan: FOV (mm)=50×35; RFOV (%)=71; Matrix scan=112; reconstruction=224; TR/TE (ms)=12/4.0; slice thickness=1 mm; slice number=11; dynamic scans=60.
i. Conduct an experiment to the subjects under anesthesia by using an inhalation anesthetic mixing 1.5% isoflurane in 100% oxygen at a flow rate of 1 L/min.
ii. Cannulate an intravenous injection line through the tail vein to inject a contrast agent.
iii. Use Gd-DTPA (Magnevist, Schering, Germany, 281 mg/kg) as a contrast agent and get pre-contrast images before injecting the contrast agent and post-contrast images after injecting it.
iv. After getting the images, inject KML001 (10 mg/kg) and Arsenic trioxide (7.5 mg/kg) intraperitoneally.
v. Get images through a dynamic scan again 24 hours after injection.
Accordingly, the groups of animals with which the DCE-MRI data was obtained are as follows: Group of animals treated with ATO: n=4, Group of animals treated with Saline: n=4 and Group of animals treated with KML001: n=6.
As the low data in MRI was mapped from each result of the DCE-MRI to the positive control group of animals treated with ATO, the negative control group of animals treated with saline and the experimental group of animals treated with KML001, Kep values important for tumor vascularity were calculated. Kep (rate constant) is the back diffusion rate constant from interstitial space to vascular space, reflecting leakage of tumor vessels, i.e., a measurement of vascularity.

Test [2] deals with acute promyelocytic leukemia (APL). To be noted: patients to which arsenic trioxide was administered; cited from earlier work.

Consider “arsenic trioxide [ATO, reference compound]”, for which the “Kep values (back diffusion rate constant, tumor vascularity)” value in test [1] (24 hours after intraperitoneal injection vs pre-treatment, KML001 10 mg/kg, ATO 7.5 mg/kg) is “significantly reduced”. In addition, in test [1] (24 hours after treatment), the “contrast enhancement of the tumors in the MRI” value is “decreased”. Also, in test [2], the “patients showing therapeutic effects without acute toxicity” value is “more than 80%”.
